For orientation: melting point means the temperature, or range, at which the solid turns liquid.

Data set [1] deals with cholesterol-fed rat. Briefly: Serum cholesterol lowering action in cholesterol-fed rat. In kind it is in vivo. The conditions noted are these: for Reduction % of serum cholesterol value: cholesterol-fed rat, value to control. The procedure:
Male Splague-Dawley rats weighing 300˜500 g (Nihon SLC Co. Ltd.) were fed MF-2 chow (Nihon Crea Co. Ltd.) until study onset. At the study onset, the chow was changed to MF-2 chow containing 1% cholesterol and 0.5% cholic acid. […] Twenty hours after the last administration, blood was collected from the abdominal aorta under ether anaesthesia, and serum was separated. The cholesterol value was measured using Cholesterol E Test Wako (Wako Pure Chemical Co. Ltd.). […] The experimental 5 and 6 indicates the combined dosage examples in the present invention. Each reduction percent is shown as the value to control.
Except of the use of compound 37 instead of compound 56, quietly same experiment to pharmacological experiment 1 was carried out. Each reduction % is shown as the value to control.

Setting [2] is: alone, 1 mg/kg/day, once a day for 7 days.
Setting [3] is: alone, 0.03 mg/kg/day, once a day for 7 days.
Where [4] appears, read: alone, 0.3 mg/kg/day, once a day for 7 days.
The mark [5] stands for this setting: combined dosage: compound 0.3 mg/kg/day + atorvastatin 1 mg/kg/day.
Setting [6] is: combined dosage: compound 0.3 mg/kg/day + atorvastatin 1 mg/kg/day, 7 days.
Setting [7] is: combined dosage: compound 0.3 mg/kg/day + fenofibrate 10 mg/kg/day.
Setting [8] is: combined dosage: compound 0.3 mg/kg/day + fenofibrate 10 mg/kg/day, 7 days.

For the molecule `CC(C)c1c(C(=O)Nc2ccccc2)c(-c2ccccc2)c(-c2ccc(F)cc2)n1CC[C@@H](O)C[C@@H](O)CC(=O)O` [Atorvastatin, atorvastatin, reference compound], the “Reduction % of serum cholesterol value” in data set [1] (setting [2]) came to 6.2%.

The molecule `O=C1[C@H](CC[C@H](O)c2ccc(F)cc2)[C@@H](c2ccc(CC[C@@H]3O[C@H](CO)[C@@H](O)[C@H](O)[C@H]3O)cc2)N1c1ccccc1` [Compound 56] had a melting point of 82 to 84 °C. Moreover, the “Reduction % of serum cholesterol value” in data set [1] (setting [3]) amounted to 1.9%. For the same molecule, in data set [1] (setting [4]), the “Reduction % of serum cholesterol value” worked out at 6.9%. Moreover, the “Reduction % of serum cholesterol value” in data set [1] (setting [2]) worked out at 33.5%. In addition, in data set [1] (setting [5]), the “Combination effect on reduction % of serum cholesterol versus sum of agents alone” value (“Combination effect on reduction %” for short) is “synergistic effect”. In addition, the “Reduction % of serum cholesterol value” in data set [1] (setting [6]) stood at 20.2%. Further, the “Combination effect on reduction %” value in data set [1] (setting [7]) is reported as “synergistic effect”. Further, in data set [1] (setting [8]), the “Reduction % of serum cholesterol value” was 41.3%.

Regarding `O=C1[C@H](CC[C@H](O)c2ccc(F)cc2)[C@@H](c2ccc([C@@H]3O[C@H](CO)[C@@H](O)[C@H](O)[C@H]3O)cc2)N1c1ccccc1` [Compound 37], the melting point was 80 to 82 °C. Besides, the “Reduction % of serum cholesterol value” in data set [1] (setting [3]) was found to be 5.6%. The “Reduction % of serum cholesterol value” in data set [1] (setting [4]) is 18.0%. For the same molecule, the “Reduction % of serum cholesterol value” in data set [1] (setting [2]) is recorded as 31.0%. Further, the “Combination effect on reduction %” value in data set [1] (setting [5]) is listed as “synergistic effect”. The “Reduction % of serum cholesterol value” in data set [1] (setting [6]) is listed as 31.5%. Further, in data set [1] (setting [7]), the “Combination effect on reduction %” value is recorded as “synergistic effect”. Also, the “Reduction % of serum cholesterol value” in data set [1] (setting [8]) is recorded as 39.5%.

`O=C1[C@H](CC[C@H](O)c2ccc(C[C@@H]3O[C@H](CO)[C@@H](O)[C@H](O)[C@H]3O)cc2)[C@@H](c2ccc(F)cc2)N1c1ccc(F)cc1` [Compound 39] yielded a melting point of 126 to 128 °C.

`CC(=O)OC[C@H]1O[C@@H](Cc2ccc([C@@H]3[C@@H](CCCc4ccc(F)cc4)C(=O)N3c3ccc(C)cc3)cc2)[C@H](OC(C)=O)[C@@H](OC(C)=O)[C@@H]1OC(C)=O` [Compound 8] displayed a melting point of 56 to 58 °C.

Take `Cc1ccc(N2C(=O)[C@H](CC[C@H](O)c3ccc(F)cc3)[C@H]2c2ccc(CC[C@@H]3O[C@H](CO)[C@@H](O)[C@H](O)[C@H]3O)cc2)cc1` [Compound 57]: the melting point was in the range of 116 to 118 °C.

`Cc1ccc(N2C(=O)[C@H](CC[C@H](O)c3ccc(F)cc3)[C@H]2c2ccc(C[C@@H]3O[C@H](CO)[C@@H](O)[C@H](O)[C@H]3O)cc2)cc1` [Compound 24] gave a melting point of 102 to 104 °C.

The molecule `O=C1[C@H](CCCc2ccccc2)[C@@H](c2ccc(C[C@@H]3O[C@H](CO)[C@@H](O)[C@H](O)[C@H]3O)cc2)N1c1ccccc1` [Compound 44] gave a melting point of 84 to 86 °C.

In turn, `O=C1[C@H](CCCc2ccc(F)cc2)[C@@H](c2ccc(C[C@@H]3O[C@H](CO)[C@@H](O)[C@H](O)[C@H]3O)cc2)N1c1ccccc1` [Compound 9] displayed a melting point of 84 to 86 °C.

`O=C1[C@H](CC[C@H](O)c2ccc([C@H]3O[C@@H](CO)[C@H](O)[C@@H](O)[C@@H]3O)cc2)C(c2ccc(F)cc2)N1c1ccc(F)cc1` (stereo partly shown) [Compound 49] showed a melting point of 111 to 113 °C.

Regarding `O=C1[C@H](CC[C@H](O)c2ccccc2)[C@@H](c2ccc(C[C@@H]3O[C@H](CO)[C@@H](O)[C@H](O)[C@H]3O)cc2)N1c1ccccc1` [Compound 41], the melting point was in the range of 110 to 112 °C.

In turn, `O=C(CC[C@H]1C(=O)N(c2ccc(F)cc2)[C@@H]1c1ccc([C@@H]2O[C@H](CO)[C@@H](O)[C@H](O)[C@H]2O)cc1)c1ccc(F)cc1` [Compound 34] came in with a melting point of 83 to 85 °C.

In turn, `O=C(O)c1ccc(N2C(=O)[C@H](CC[C@H](O)c3ccc(F)cc3)[C@H]2c2ccc(C[C@@H]3O[C@H](CO)[C@@H](O)[C@H](O)[C@H]3O)cc2)cc1` [Compound 29] displayed a melting point of 148 to 150 °C.

Take `Cc1ccc(CCC[C@H]2C(=O)N(c3ccc(OC(C)(C)C(=O)O)cc3)[C@@H]2c2ccc(C[C@@H]3O[C@H](CO)[C@@H](O)[C@H](O)[C@H]3O)cc2)cc1` [Compound 21]: the melting point was 161 to 162 °C.

These data come from patent publication US7795229B2, “Serum cholesterol lowering agent or preventative or therapeutic agent for atherosclerosis” (Kotobuki Pharmaceutical Co., Ltd., priority 2003, dated 2010).
